# Results as given in patent US5268374A, “Non-peptide renin inhibitors” (Abbott Laboratories, priority 1991, dated 1993).
# Key:
# [1] = Blood pressure in salt-depleted monkeys after oral dosing; assay type: in vivo, cynomolgous monkeys; details: 3 mg/kg oral
# Excerpt: (§1) The ability of the compounds of the invention to decrease blood pressure and plasma renin activity in vivo can be determined using the following method.
# (§2) Male cynomolgous monkeys housed under constant temperature and lighting conditions and weighing 3-5 kg were instrumented with chronic indwelling arterial and venous catheters.
# plasma renin = assay: Plasma renin activity (PRA) in salt-depleted monkeys after oral dosing; assay type: in vivo, cynomolgous monkeys; details: 3 mg/kg oral
# Excerpt: as §1, §2
# human renal renin = target: T1, human renal renin (Homo sapiens, UniProt P00797); assay: Inhibition of human renal renin in vitro (angiotensin I formation by radioimmunoassay); assay type: biochemical; details: human renal renin, 37 degrees C, pH 6.0; read-out: IC50
# T1 construct: from tissue; host or cells: human kidney (read from the word 'renal'; no preparation is printed)
# T1 sequence (P00797 67-406): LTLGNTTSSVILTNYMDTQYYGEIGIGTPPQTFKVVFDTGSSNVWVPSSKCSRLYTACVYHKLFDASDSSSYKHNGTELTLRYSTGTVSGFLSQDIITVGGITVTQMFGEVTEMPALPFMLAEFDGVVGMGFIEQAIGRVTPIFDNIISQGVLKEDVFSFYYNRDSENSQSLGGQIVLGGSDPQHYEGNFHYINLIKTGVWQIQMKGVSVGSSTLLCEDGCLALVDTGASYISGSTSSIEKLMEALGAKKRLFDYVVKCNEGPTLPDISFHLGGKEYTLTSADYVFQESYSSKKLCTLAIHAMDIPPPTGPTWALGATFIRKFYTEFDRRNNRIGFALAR
# [2] = Mean of two monkeys, time 0 min
smiles,measurement,setting,value
"CCCC[C@H](O[C@@H](Cc1ccccc1)C(=O)N1CCC(OCOC)CC1)C(=O)N[C@@H](CC1CCCCC1)[C@@H](O)C[C@H](C(=O)NCCCN1CCOCC1)C(C)C [Example 118, 2(S)-(1(S)-(4-(Methoxymethoxy)piperidin-1-yl)carbonyl-2-phenyl)ethoxyhexanoic acid amide of 3-(4-morpholinyl)propyl 5(S)-amino-6-cyclohexyl-4(S)-hydroxy-2(S)-isopropylhexanamide]",Blood pressure (BP),"[1]; Mean of two monkeys, 5 min",117 mmHg
same,Blood pressure (BP),"[1]; Mean of two monkeys, 15 min",111 mmHg
same,Blood pressure (BP),"[1]; Mean of two monkeys, 30 min",112 mmHg
same,Blood pressure (BP),"[1]; Mean of two monkeys, 45 min",104 mmHg
same,Blood pressure (BP),"[1]; Mean of two monkeys, 60 min",109 mmHg
same,Blood pressure (BP),"[1]; Mean of two monkeys, 90 min",98 mmHg
same,Blood pressure (BP),"[1]; Mean of two monkeys, 120 min",94 mmHg
same,Blood pressure (BP),"[1]; Mean of two monkeys, 180 min",94 mmHg
same,Blood pressure (BP),"[1]; Mean of two monkeys, 360 min",99 mmHg
same,Blood pressure (BP),[1]; [2],114 mmHg
same,Blood pressure (BP),"[1]; Monkey 1, 5 min",112 mmHg
same,Blood pressure (BP),"[1]; Monkey 1, 15 min",105 mmHg
same,Blood pressure (BP),"[1]; Monkey 1, 30 min",113 mmHg
same,Blood pressure (BP),"[1]; Monkey 1, 45 min",95 mmHg
same,Blood pressure (BP),"[1]; Monkey 1, 60 min",102 mmHg
same,Blood pressure (BP),"[1]; Monkey 1, 90 min",90 mmHg
same,Blood pressure (BP),"[1]; Monkey 1, 120 min",84 mmHg
same,Blood pressure (BP),"[1]; Monkey 1, 180 min",84 mmHg
same,Blood pressure (BP),"[1]; Monkey 1, 360 min",94 mmHg
same,Blood pressure (BP),"[1]; Monkey 1, time 0 min",107 mmHg
same,Blood pressure (BP),"[1]; Monkey 2, 5 min",121 mmHg
same,Blood pressure (BP),"[1]; Monkey 2, 15 min",117 mmHg
same,Blood pressure (BP),"[1]; Monkey 2, 30 min",110 mmHg
same,Blood pressure (BP),"[1]; Monkey 2, 45 min",112 mmHg
same,Blood pressure (BP),"[1]; Monkey 2, 60 min",115 mmHg
same,Blood pressure (BP),"[1]; Monkey 2, 90 min",106 mmHg
same,Blood pressure (BP),"[1]; Monkey 2, 120 min",103 mmHg
same,Blood pressure (BP),"[1]; Monkey 2, 180 min",103 mmHg
same,Blood pressure (BP),"[1]; Monkey 2, 360 min",103 mmHg
same,Blood pressure (BP),"[1]; Monkey 2, time 0 min",120 mmHg
same,Plasma Renin Activity (PRA),"plasma renin; Mean of two monkeys, 5 min",9.7 ng/mL/h
same,Plasma Renin Activity (PRA),"plasma renin; Mean of two monkeys, 15 min",1.5 ng/mL/h
same,Plasma Renin Activity (PRA),"plasma renin; Mean of two monkeys, 30 min",0.4 ng/mL/h
same,Plasma Renin Activity (PRA),"plasma renin; Mean of two monkeys, 45 min",0.2 ng/mL/h
same,Plasma Renin Activity (PRA),"plasma renin; Mean of two monkeys, 60 min",0.2 ng/mL/h
same,Plasma Renin Activity (PRA),"plasma renin; Mean of two monkeys, 90 min",0.0 ng/mL/h
same,Plasma Renin Activity (PRA),"plasma renin; Mean of two monkeys, 120 min",0.3 ng/mL/h
same,Plasma Renin Activity (PRA),"plasma renin; Mean of two monkeys, 180 min",0.3 ng/mL/h
same,Plasma Renin Activity (PRA),"plasma renin; Mean of two monkeys, 360 min",0.2 ng/mL/h
same,Plasma Renin Activity (PRA),plasma renin; [2],23.9 ng/mL/h
same,Plasma Renin Activity (PRA),"plasma renin; Monkey 1, 5 min",5.8 ng/mL/h
same,Plasma Renin Activity (PRA),"plasma renin; Monkey 1, 15 min",0.1 ng/mL/h
same,Plasma Renin Activity (PRA),"plasma renin; Monkey 1, 30 min",0.4 ng/mL/h
same,Plasma Renin Activity (PRA),"plasma renin; Monkey 1, 45 min",0.0 ng/mL/h
same,Plasma Renin Activity (PRA),"plasma renin; Monkey 1, 60 min",0.0 ng/mL/h
same,Plasma Renin Activity (PRA),"plasma renin; Monkey 1, 90 min",0.0 ng/mL/h
same,Plasma Renin Activity (PRA),"plasma renin; Monkey 1, 120 min",0.2 ng/mL/h
same,Plasma Renin Activity (PRA),"plasma renin; Monkey 1, 180 min",0.2 ng/mL/h
same,Plasma Renin Activity (PRA),"plasma renin; Monkey 1, 360 min",0.0 ng/mL/h
same,Plasma Renin Activity (PRA),"plasma renin; Monkey 1, time 0 min",29.1 ng/mL/h
same,Plasma Renin Activity (PRA),"plasma renin; Monkey 2, 5 min",13.5 ng/mL/h
same,Plasma Renin Activity (PRA),"plasma renin; Monkey 2, 15 min",2.9 ng/mL/h
same,Plasma Renin Activity (PRA),"plasma renin; Monkey 2, 30 min",0.4 ng/mL/h
same,Plasma Renin Activity (PRA),"plasma renin; Monkey 2, 45 min",0.3 ng/mL/h
same,Plasma Renin Activity (PRA),"plasma renin; Monkey 2, 60 min",0.3 ng/mL/h
same,Plasma Renin Activity (PRA),"plasma renin; Monkey 2, 90 min",0.0 ng/mL/h
same,Plasma Renin Activity (PRA),"plasma renin; Monkey 2, 120 min",0.4 ng/mL/h
same,Plasma Renin Activity (PRA),"plasma renin; Monkey 2, 180 min",0.4 ng/mL/h
same,Plasma Renin Activity (PRA),"plasma renin; Monkey 2, 360 min",0.3 ng/mL/h
same,Plasma Renin Activity (PRA),"plasma renin; Monkey 2, time 0 min",18.7 ng/mL/h
same,IC50,human renal renin,0.84 nM
